This experiment addresses Acetyl-CoA carboxylase 1 (Homo sapiens, UniProt Q13085). Briefly: etermination of IC50 of Inhibition of Enzymatic Activity of ACC1 and ACC2 by the Compound of the Present Disclosure: The degree of inhibition of the enzymatic activity of recombinant human ACC1, ACC2 proteins under in-vitro conditions by the preferred compounds of the present disclosure is determined by the following method.The principle of the method was based on the reaction of ACC protein-catalyzed acetyl-CoA to form malonyl-CoA. ATP was consumed during this reaction and ADP was produced. The produced ADP was reconverted into ATP by using ADP-Glo™ Kinase Kit from Promega. This part of ATP reacted with the luciferase-fluorescence in the kit, and generated chemiluminescent signals. Thus, by measuring the intensity of chemiluminescent signal, the amount of ADP produced in the catalytic reaction was reflected, thereby indirectly determining the enzymatic activity of ACC protein and the effect of the tested compound on the enzymatic activity. […]. On the technique in general: In ADP-Glo the light output rises with the ADP produced.

The record followed here is ChEMBL document CHEMBL5728757, “Cyano substituted heteroarylpyrimidinone derivative, preparation method and use thereof” (2021).

Each structure is given as a SMILES string.

For the compound `CCOc1ccc(F)cc1[C@H](Cn1c(=O)n(C(C)(C)C(N)=O)c(=O)c2c(C)c(C#N)sc21)OC1CCOCC1`, the IC50 – broadly, the point on the concentration scale where inhibition reaches its midpoint – was 13.1 nM.
